Laboratory results: patent US12655107B2 (The United States of America, as represented by the …, priority 2018, dated 2026)
Where “and” joins values, the source holds several entries; their conditions need not be identical. Identical values can stand only once.

Legend:
Top1 = biological target: T1, Top1 (Homo sapiens, UniProt P11387); test: Top1-mediated DNA cleavage assay; format: biochemical; settings: for Top1 cleavage: inhibition relative to 1 μM CPT, Table 6
T1 sequence (P11387 1-765): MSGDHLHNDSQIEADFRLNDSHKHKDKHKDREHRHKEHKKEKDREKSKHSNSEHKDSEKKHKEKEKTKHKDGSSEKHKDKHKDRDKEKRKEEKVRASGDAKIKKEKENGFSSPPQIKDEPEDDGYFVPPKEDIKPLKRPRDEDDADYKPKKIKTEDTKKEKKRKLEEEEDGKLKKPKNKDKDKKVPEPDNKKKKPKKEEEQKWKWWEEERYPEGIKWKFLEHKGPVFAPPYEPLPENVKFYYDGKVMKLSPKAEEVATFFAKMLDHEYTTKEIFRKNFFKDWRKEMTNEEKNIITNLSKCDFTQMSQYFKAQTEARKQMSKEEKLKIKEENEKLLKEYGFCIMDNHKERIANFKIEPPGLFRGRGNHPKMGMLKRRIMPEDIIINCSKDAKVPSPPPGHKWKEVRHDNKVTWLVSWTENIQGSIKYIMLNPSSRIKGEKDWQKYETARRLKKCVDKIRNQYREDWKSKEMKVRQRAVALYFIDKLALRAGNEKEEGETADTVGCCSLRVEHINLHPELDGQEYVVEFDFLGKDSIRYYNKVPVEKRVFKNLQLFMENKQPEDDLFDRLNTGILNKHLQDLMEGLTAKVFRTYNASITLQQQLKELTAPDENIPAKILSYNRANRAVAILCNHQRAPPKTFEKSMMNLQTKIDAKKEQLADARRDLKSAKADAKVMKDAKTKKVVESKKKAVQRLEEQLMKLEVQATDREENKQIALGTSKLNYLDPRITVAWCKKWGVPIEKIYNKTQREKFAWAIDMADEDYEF

Tdp1 = Tdp1 (Homo sapiens, UniProt Q9NUW8); test: Tdp1 inhibition gel-based assay; settings: IC50 Tdp1 (μM), Table 6; replicate values listed in one cell
Tdp1, sequence (Q9NUW8 whole entry): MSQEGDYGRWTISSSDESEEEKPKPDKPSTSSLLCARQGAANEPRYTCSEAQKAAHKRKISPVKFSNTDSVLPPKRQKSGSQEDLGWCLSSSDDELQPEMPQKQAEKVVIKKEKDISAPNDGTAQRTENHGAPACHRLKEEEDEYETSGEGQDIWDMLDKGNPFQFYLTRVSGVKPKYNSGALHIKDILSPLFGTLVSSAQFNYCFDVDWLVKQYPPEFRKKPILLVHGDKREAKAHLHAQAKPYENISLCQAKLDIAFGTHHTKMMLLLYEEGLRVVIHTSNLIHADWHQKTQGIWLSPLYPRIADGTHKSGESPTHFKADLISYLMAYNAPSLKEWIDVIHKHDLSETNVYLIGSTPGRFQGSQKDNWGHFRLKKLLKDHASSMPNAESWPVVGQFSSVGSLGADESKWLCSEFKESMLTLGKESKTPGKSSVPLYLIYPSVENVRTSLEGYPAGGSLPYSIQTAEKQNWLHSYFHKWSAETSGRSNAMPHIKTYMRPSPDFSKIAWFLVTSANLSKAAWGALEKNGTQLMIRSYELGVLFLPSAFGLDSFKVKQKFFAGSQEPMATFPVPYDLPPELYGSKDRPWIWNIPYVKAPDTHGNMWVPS
Experimental: The indenoisoquinoline 10 was used as the positive control.
Gel-based assay. […] Gels were dried and exposed to a PhosphorImager screen (GE Healthcare). Gel images were scanned using a Typhoon FLA 9500 scanner (GE Healthcare), and densitometry analyses were performed using the ImageQuant software (GE Healthcare).

Row | SMILES | TOP1 inhibition (Top1; graded relative to CPT at 1 μM, Table 7) | IC50 (Tdp1) | Top1 cleavage (Top1)
1 | COc1cc2c(=O)n(CCN(C)P3(=O)OCCO3)c3c4cc5c(cc4ccc3c2cc1OC)OCO5 [Compound 57, 2,3-dimethoxy-12-(2-(methyl(2-oxido-1,3,2-dioxaphospholan-2-yl)amino)ethyl)-[1,3]dioxolo[4′,5′:4,5]benzo[1,2-c]phenanthridin-13(12H)-one] | ++ (++, between 50% and 75% activity) |  | 
2 | COc1cc2c[n+](CCN(C)C)c3c4cc5c(cc4ccc3c2cc1OC)OCO5 [NTD-191] |  | 64.2 ± 23.9 µM | 
3 | COc1cc2c[n+](CCCn3ccnc3)c3c4cc5c(cc4ccc3c2cc1OC)OCO5 [NTD-192] |  | 81.3 ± 14.5 µM | 
4 | CCN(CC)CC[n+]1cc2cc(OC)c(OC)cc2c2ccc3cc4c(cc3c21)OCO4 [NTD-195] |  | > 111 µM | 
5 | COc1cc2c(OCCCN3CCN(C(C)=O)CC3)nc3c4cc5c(cc4ccc3c2cc1OC)OCO5 [NTD-205] |  | > 111 µM | ++ (++ is 50-75%)
6 | CCN1CCN(CCCOc2nc3c4cc5c(cc4ccc3c3cc(OC)c(OC)cc23)OCO5)CC1 [NTD-207] |  | > 111 µM | + (+ is 20-50%)
7 | COc1cc2c(OCCCOC(=O)c3ccccc3)nc3c4cc5c(cc4ccc3c2cc1OC)OCO5 [NTD-208] |  | > 111 µM | + (+ is 20-50%)
8 | COc1cc2c(OCCCOC(=O)c3ccc(Br)cc3)nc3c4cc5c(cc4ccc3c2cc1OC)OCO5 [NTD-209] |  | > 111 µM | + (+ is 20-50%)
9 | COc1cc2c(OCCCOC(=O)c3ccc(Cl)cc3)nc3c4cc5c(cc4ccc3c2cc1OC)OCO5 [NTD-210] |  | > 111 µM | + (+ is 20-50%)
10 | COc1cc2c(OCCCN3CCC3)nc3c4cc5c(cc4ccc3c2cc1OC)OCO5 [NTD-225] |  | 20.6 ± 4.46 µM | 0 (0 is inactive)
11 | COc1cc2c(NCCCN(C)C)nc3c4cc5c(cc4ccc3c2cc1OC)OCO5 [NTD-301] |  | 38 µM | 0 (0 is inactive)
12 | CCN(CC)CCNc1nc2c3cc4c(cc3ccc2c2cc(OC)c(OC)cc12)OCO4 [NTD-305] |  | > 111 µM | + (+ is 20-50%)
13 | COc1cc2c(NCCN3CCCC3)nc3c4cc5c(cc4ccc3c2cc1OC)OCO5 [NTD-307] |  | 56.2 µM | 
14 | COc1cc2c(NCCN3CCOCC3)nc3c4cc5c(cc4ccc3c2cc1OC)OCO5 [NTD-309] |  | > 111 µM | + (n = 2) (+ is 20-50%)
15 | COc1cc2c(NCCN3CCNCC3)nc3c4cc5c(cc4ccc3c2cc1OC)OCO5 [NTD-311] |  | > 111 µM | 
16 | COc1cc2c(NCCCN3CCN(C)CC3)nc3c4cc5c(cc4ccc3c2cc1OC)OCO5 [NTD-312] |  | > 111 µM | + (+ is 20-50%)
17 | COc1cc2c(NCCN3CCCCC3)nc3c4cc5c(cc4ccc3c2cc1OC)OCO5 [NTD-313] |  | > 111 µM | + (n = 2) (+ is 20-50%)
18 | COc1cc2c(NCCCn3ccnc3)nc3c4cc5c(cc4ccc3c2cc1OC)OCO5 [NTD-314] |  | > 111 µM | + (+ is 20-50%)
19 | COc1cc2c(NCCN)nc3c4cc5c(cc4ccc3c2cc1OC)OCO5 [NTD-325] |  | 72 µM and 107 µM | 0 (0 is inactive)
20 | COc1cc2c(N(C)C)nc3c4cc5c(cc4ccc3c2cc1OC)OCO5 [NTD-329] |  | > 111 µM | 
21 | C=CCOc1nc2c3cc4c(cc3ccc2c2cc(OC)c(OC)cc12)OCO4 [NTD-332] |  | > 111 µM | 
22 | CCOC(=O)COc1nc2c3cc4c(cc3ccc2c2cc(OC)c(OC)cc12)OCO4 [NTD-334] |  | > 111 µM | 
23 | CCC(CO)Nc1nc2c3cc4c(cc3ccc2c2cc(OC)c(OC)cc12)OCO4 (centres unmarked) [NTD-363] |  |  | + (+ is 20-50%)
24 | COc1cc2c(SCCN(C)C)nc3c4cc5c(cc4ccc3c2cc1OC)OCO5 [NTD-403] |  | > 111 µM | ++ (n = 2) (++ is 50-75%)
25 | CCN(CC)CCSc1nc2c3cc4c(cc3ccc2c2cc(OC)c(OC)cc12)OCO4 [NTD-404] |  | > 111 µM | ++ (++ is 50-75%)
26 | CN(C)CCn1c(=O)c2ccccc2c2ccc3ccccc3c21 [TWL-5] |  | 75.9 µM and > 111 µM (2×) and 64.6 µM | + (+ is 20-50%)

Row | SMILES | TOP1 inhibition (Top1; graded relative to CPT at 1 μM, Table 7) | IC50 (Tdp1) | Top1 cleavage (Top1)
27 | COc1ccc2c(ccc3c4ccccc4c(=O)n(CCN(C)C)c23)c1 [TWL-9] |  | > 111 µM | + (+ is 20-50%)
28 | COc1ccc2c(=O)n(CCN(C)C)c3c4ccccc4ccc3c2c1 [TWL-17] |  | > 111 µM | + (+ is 20-50%)
29 | CN(C)CCn1c(=O)c2cc(O)ccc2c2ccc3ccccc3c21 [TWL-25A] |  | > 111 µM (2×) and 74.1 µM and 75.9 µM | + (+ is 20-50%)
30 | COc1ccc2c(c1)c(=O)n(CCN(C)C)c1c3ccccc3ccc21 [TWL-25] |  | 49.4 ± 1.4 µM | + (+ is 20-50%)
31 | COc1cccc2c1ccc1c3ccccc3c(=O)n(CCN(C)C)c21 [TWL-26] |  | > 111 µM | + (+ is 20-50%)
32 | COc1ccc2ccc3c4ccccc4c(=O)n(CCN(C)C)c3c2c1 [TWL-33] |  | > 111 µM | + (+ is 20-50%)
33 | CN(C)CCn1c(=O)c2cc3c(cc2c2ccc4cc5c(cc4c21)OCO5)OCO3 [TWL-37] |  | 27.6 ± 19 µM | + (+ is 20-50%)
34 | CN(C)CCn1c(=O)c2cc3c(cc2c2ccc4ccccc4c21)OCO3 [TWL-40] |  | 18.2 ± 1.15 µM | + (+ is 20-50%)
35 | COc1cc2c(=O)n(CCN(C)C)c3c4ccccc4ccc3c2cc1OC [TWL-44] |  | > 111 µM | + (+ is 20-50%)
36 | COc1cc2ccc3c4cc(OC)c(OC)cc4c(=O)n(CCN(C)C)c3c2cc1OC [TWL-48] |  | > 111 µM | 
37 | CN(C)CCn1c(=O)c2ccccc2c2ccc3cc(Br)ccc3c21 [TWL-53] |  | > 111 µM | 
38 | CN(C)CCn1c(=O)c2ccccc2c2ccc3cc4c(cc3c21)OCO4 [TWL-67] |  | > 111 µM | + (+ is 20-50%)
39 | COc1cc2ccc3c4ccccc4c(=O)n(CCN(C)C)c3c2cc1OC [TWL-76H] |  | > 111 µM | 
40 | COc1cc2ccc3c4cc5c(cc4c(=O)n(CCN(C)C)c3c2cc1OC)OCO5 [TWL-107] |  | 67.6 µM | 
41 | COc1cc2c(cc1O)c(=O)n(CCN(C)C)c1c3cc4c(cc3ccc21)OCO4 [TWL-113] |  | > 111 µM (2×) and 65 µM | + (+ is 20-50%)
42 | COc1cc2c(=O)n(CCN(C)C)c3c4cc5c(cc4ccc3c2cc1O)OCO5 [TWL-119] |  | > 111 µM | + (+ is 20-50%)
43 | COc1cc2c(ccc3c4cc(OC)c(OC)cc4c(=O)n(CCN(C)C)c23)cc1O [TWL-125] |  | 65 µM and 50 µM | + (+ is 20-50%)
44 | COc1cc2ccc3c4cc(OC)c(OC)cc4c(=O)n(CCN(C)C)c3c2cc1O [TWL-131] |  | > 111 µM | 
45 | COc1cc2c(=O)n(CCN(C)C)c3c4cc(O)c(O)cc4ccc3c2cc1OC [TWL-164] |  | > 111 µM | ++ (++ is 50-75%)
46 | CN(C)CCn1c(=O)c2cc(O)c(O)cc2c2ccc3cc4c(cc3c21)OCO4 [TWL-170] |  | > 111 µM | + (+ is 20-50%)
47 | CN(C)CCn1c(=O)c2c3c(ccc2c2ccc4ccccc4c21)OCO3 [TWL-185] |  | > 111 µM | + (+ is 20-50%)
48 | COc1cc2ccc3c4ccc5c(c4c(=O)n(CCN(C)C)c3c2cc1OC)OCO5 [TWL-189] |  | > 111 µM | + (+ is 20-50%)
49 | CN(C)CCn1c(=O)c2c3c(ccc2c2ccc4cc5c(cc4c21)OCO5)OCO3 [TWL-191] |  | > 111 µM | 
50 | COc1ccc2c(c1O)c(=O)n(CCN(C)C)c1c3cc4c(cc3ccc21)OCO4 [TWL-211] |  | 11 µM and 30 µM and 72 µM | + (+ is 20-50%)
51 | CN(C)CCn1c(=O)c2c(O)c(O)ccc2c2ccc3cc4c(cc3c21)OCO4 [TWL-218A] |  |  | +++ (+++ is 75-95%)
52 | COc1cc2c(=O)n(CCN(C)C)c3c4cc5c(cc4c(OC)cc3c2cc1OC)OCO5 [TWL-246] |  |  | ++ (++ is 50-75%)
